In patent US12583893B2, “Use of esculentin and its derivatives for use in the treatment of cystic fibrosis” (UNIVERSITÀ DEGLI STUDI DI ROMA LA SAPIENZA, priority 2019, dated 2026):
Entries after “also recorded” stand apart in the source; their conditions may differ. Square brackets hold non-standard residues; d marks the D form. Ends that are not written are not given here. d(pS) = N[C@H](COP(=O)(O)O)C(=O)O

What was measured:
[1] = target: T1, F508del CFTR (Homo sapiens, UniProt P13569, DEL508-508); assay: Ussing chamber short-circuit current on bronchial epithelia from homozygous F508del patient; format: cell-based; set-up: Ussing chamber experiments on bronchial epithelia from homozygous F508del patient; host or cells: primary human bronchial epithelial cells from a CF patient homozygous for F508del; settings: epithelia incubated 24 h with 1 μM Vx-809, then amiloride, cpt-cAMP and potentiator
T1 sequence (P13569 with tags, fused parts or gaps DEL508-508): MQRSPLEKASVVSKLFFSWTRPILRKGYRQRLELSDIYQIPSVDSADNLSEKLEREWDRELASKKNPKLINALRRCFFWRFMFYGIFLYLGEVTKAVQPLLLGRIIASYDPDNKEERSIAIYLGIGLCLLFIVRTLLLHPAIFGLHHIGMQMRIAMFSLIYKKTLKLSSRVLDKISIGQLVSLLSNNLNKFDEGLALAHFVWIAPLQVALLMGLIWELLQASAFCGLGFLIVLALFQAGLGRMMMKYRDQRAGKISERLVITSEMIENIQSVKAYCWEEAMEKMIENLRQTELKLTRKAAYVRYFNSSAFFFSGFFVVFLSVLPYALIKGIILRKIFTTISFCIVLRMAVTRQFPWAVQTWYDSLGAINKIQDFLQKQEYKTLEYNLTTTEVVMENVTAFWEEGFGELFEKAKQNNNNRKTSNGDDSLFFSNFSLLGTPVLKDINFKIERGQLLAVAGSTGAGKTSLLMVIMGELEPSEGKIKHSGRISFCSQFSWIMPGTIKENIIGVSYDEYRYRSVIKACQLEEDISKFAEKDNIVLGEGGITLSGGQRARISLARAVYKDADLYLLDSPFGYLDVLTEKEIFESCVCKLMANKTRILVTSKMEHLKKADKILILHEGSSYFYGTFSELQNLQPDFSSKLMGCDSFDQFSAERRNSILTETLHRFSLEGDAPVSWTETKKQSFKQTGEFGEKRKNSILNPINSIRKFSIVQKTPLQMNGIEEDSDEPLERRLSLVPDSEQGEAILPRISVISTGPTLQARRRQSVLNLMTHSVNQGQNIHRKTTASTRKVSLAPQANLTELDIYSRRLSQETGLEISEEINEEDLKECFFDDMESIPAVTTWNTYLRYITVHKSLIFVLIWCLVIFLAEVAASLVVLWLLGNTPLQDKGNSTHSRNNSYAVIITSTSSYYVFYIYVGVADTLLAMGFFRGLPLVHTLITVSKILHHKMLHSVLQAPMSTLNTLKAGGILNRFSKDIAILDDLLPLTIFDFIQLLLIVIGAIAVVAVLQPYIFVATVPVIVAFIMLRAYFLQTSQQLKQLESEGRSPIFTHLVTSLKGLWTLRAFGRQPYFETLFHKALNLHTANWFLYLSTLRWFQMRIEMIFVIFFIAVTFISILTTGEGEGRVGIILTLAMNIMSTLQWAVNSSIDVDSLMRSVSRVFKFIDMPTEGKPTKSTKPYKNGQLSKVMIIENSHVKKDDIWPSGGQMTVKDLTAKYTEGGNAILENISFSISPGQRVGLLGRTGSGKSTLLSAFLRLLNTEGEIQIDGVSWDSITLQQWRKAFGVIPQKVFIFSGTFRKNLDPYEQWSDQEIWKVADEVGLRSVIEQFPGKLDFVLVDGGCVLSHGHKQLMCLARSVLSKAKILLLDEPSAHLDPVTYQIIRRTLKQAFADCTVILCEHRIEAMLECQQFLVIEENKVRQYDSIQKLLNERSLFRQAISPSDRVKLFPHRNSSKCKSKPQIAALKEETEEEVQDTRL
Procedure: Snapwell inserts (Corning 3801) carrying differentiated bronchial epithelia were mounted in a vertical diffusion chamber, resembling a Ussing chamber with internal fluid circulation. Both apical and basolateral chambers were filled with 5 ml of saline solution. The short-circuit current was recorded with a PowerLab 4/25 (ADInstruments) analog-to-digital converter connected to a computer. Epithelia were incubated for 24 h with 1 μM Vx-809 or 0.1% DMSO. Afterwards, 10 μM amiloride was added; subsequently, CFTR channels were activated by phosphorylation upon addition of 100 μM cpt-cAMP (permeable cAMP analog). Then, 1 μM of the potentiator Vx-770 as well as each Esc peptide was added on the epithelium apical side, as indicated. Finally, 10 μM Inh172, a specific inhibitor of CFTR was added to the epithelium apical side. Measurements were done after 5 min from the addition of each substance. In parallel, epithelia pre-incubated for 24 h with each peptide and then treated with amiloride, cpt-cAMP and Vx-770 were used for comparison.
The CFTR potentiating activity of Esc peptides in primary airway epithelial cells was studied by Ussing chamber experiments on bronchial epithelia from homozygous F508del patient. Epithelia were treated for 24 h with 0.1% DMSO vehicle alone, 1 μM Vx809 or with each Esc peptide. […]

[2] = test system: Pseudomonas aeruginosa; settings: cited from earlier work
[3] = test system: P. aeruginosa biofilm; settings: compared with Esc(1-21); cited from earlier work
[4] = test system: wt-CFBE; settings: compared with Esc(1-21); cited from earlier work
[5] = test system: F508del-CFBE; settings: compared with Esc(1-21); cited from earlier work
[6] = target: T1, F508del CFTR; assay: CFTR-dependent trans-epithelial conductance by TEER in F508del-CFBE pre-incubated with Vx-809; format: cell-based; set-up: expressed in transfected cells; host or cells: CFBE41o- human bronchial epithelial cells, lentiviral transduction (F508del-CFBE); settings: for CFTR conductance: 10 μM peptide + 20 μM FSK without GEN, 10 min, pre-incubated 24 h with 1 μM Vx-809
Procedure: In parallel, to evaluate CFTR activation, the same saline solution was used. After measurement of basal TEER, 20 μM FSK+50 μM GEN as positive control, or FSK+ peptides at the desired concentration were added on the epithelium apical side. Finally, 30 μM PPQ102, a specific inhibitor of CFTR, was added on the epithelium apical side. After each addition, we waited ten minutes at 37° C. before measurement. From the values of TEER measured before and after CFTR inhibition, we calculated the CFTR-dependent trans-epithelial conductance for each condition [Sondo E, Falchi F, Caci E, Ferrera L, Giacomini E, Pesce E, Tomati V, Mandrup Bertozzi S, Goldoni L, Armirotti A, Ravazzolo R, Cavalli A, Pedemonte N (2018) Pharmacological Inhibition of the Ubiquitin Ligase RNF5 Rescues F508del-CFTR in Cystic Fibrosis Airway Epithelia. Cell Chem Biol 25, 891-905 e898].
Subsequently, was investigated the ability of Esc peptides to act as potentiators of mutated CFTR, by promoting its phosphorylation state or its channel opening time, mimicking the activity of forskolin (FSK) or genistein (GEN), respectively, which are both needed for full activation of CFTR [Sondo E, Falchi F, Caci E, Ferrera L, Giacomini E, Pesce E, Tomati V, Mandrup Bertozzi S, Goldoni L, Armirotti A, Ravazzolo R, Cavalli A, Pedemonte N (2018) Pharmacological Inhibition of the Ubiquitin Ligase RNF5 Rescues F508del-CFTR in Cystic Fibrosis Airway Epithelia. Cell Chem Biol 25, 891-905 e898]. Noteworthy, the adenylate cyclase activator FSK [Ma T, Thiagarajah J R, Yang H, Sonawane N D, Folli C, Galietta L J, Verkman A S (2002) Thiazolidinone CFTR inhibitor identified by high-throughput screening blocks cholera toxin-induced intestinal fluid secretion. J Clin Invest 110, 1651-1658] is reported to trigger an increase of intracellular cAMP favouring CFTR phosphorylation by cellular protein kinases e.g. PKA, while the isoflavone GEN accelerates channel opening, by promoting NBD dimerization, and slows channel closure by stabilizing the NBD1:NBD2 dimer conformation [Schmidt A, Hughes L K, Cai Z, Mendes F, Li H, Sheppard D N, Amaral M D (2008) Prolonged treatment of cells with genistein modulates the expression and function of the cystic fibrosis transmembrane conductance regulator. Br J Pharmacol 153, 1311-1323]. The CFTR-mediated conductance of bronchial epithelium was evaluated by TEER, after 10 min, 1 h and 2 h treatment of F508del-CFBE (pre-incubated with the corrector Vx-809 in order to trigger the mutated protein to the apical membrane) with Esc(1-21)-1c (10 μM), in the absence of FSK or GEN. […] This clearly denoted that the peptide was able to potentiate CFTR activity, likely by prolonging its channel opening time.
The conductance was then measured on F508del-CFBE. […]

[7] = test system: Pseudomonas; settings: single intra-tracheal instillation, cited from earlier work
[8] = target: T1, F508del CFTR; assay: Trans-epithelial electrical conductance in del508-FRT cells, position-17 analogs; format: cell-based; set-up: expressed in transfected cells; settings: 10 min treatment with 10 μM peptide tested as potentiator (instead of genistein)
Text: To understand whether the potentiator effect of Esc peptides was specifically dependent on their sequence and/or correlated to the presence of Ser17, eventually upon its phosphorylation by PKA, a series of peptide analogs bearing different L/D amino acids at position 17 were synthesized, the analogs are presented in the following table 1. The analogs were used to measure the trans-epithelial electrical conductance in […] Rat Thyroid cells, which is a cell line frequently used for functional studies and stably expressing F508del-CFTR (del508-FRT). Among them, compounds 3 and 5 carrying L and D-Alanine, respectively; compound 6 carrying the achiral Glycine17; compounds 7 and 8, with another potential target amino acid of protein kinases i.e. D and L-threonine respectively; and compounds 9 ad 10 where Ser17 was replaced by a residue with a bulky side chain, i.e. D and L tryptophan, respectively. Furthermore, an analog with L-phosphoserine at position 17 were included for comparison.

Compound: CC(C)(C)c1cc(C(C)(C)C)c(NC(=O)c2c[nH]c3ccccc3c2=O)cc1O [Vx-770]
- CFTR-mediated current as potentiator [1]: significant current increase

Compound: GIFSKLAGKKIKNLLISGLKG-NH2 [Esc(1-21), first 20 amino acids of Esculentin 1a with a glycinamide residue at the C-terminus]
- antipseudomonal activity [2]: potent antipseudomonal activity

Compound: Gly-Ile-Phe-Ser-Lys-Leu-Ala-Gly-Lys-Lys-Ile-Lys-Asn-dLeu-Leu-Ile-dSer-Gly-Leu-Lys-Gly-NH2 (GIFSKLAGKKIKN[dL]LI[dS]GLKG-NH2) [Esc(1-21)-1c, diastereomer of Esc(1-21) with two D-amino acids]
- activity against P. aeruginosa biofilm [3]: more active against P. aeruginosa biofilm
- re-epithelialization of bronchial epithelial cells [4]: more efficient to induce re-epithelialization
- re-epithelialization of bronchial epithelial cells [5]: more efficient to induce re-epithelialization
- CFTR conductance [6]: significant increase of CFTR conductance
- potentiator activity (CFTR conductance) over time ([6]; 10 μM peptide + FSK without GEN, 1 h or 2 h treatment, pre-incubated with Vx-809): remain constant up to 2 h
- CFTR-mediated conductance (rescue of CFTR activity) ([6]; 10 μM peptide in the absence of FSK, pre-incubated with Vx-809): no rescue of CFTR activity
- reduction of lung bacterial burden ([7]; 0.1 mg/kg corresponding to 20 μM, compared with Esc(1-21)): more potent in reducing lung bacterial burden
- toxicity or inflammatory side events ([7]; 0.1 mg/kg): negligible toxicity or inflammatory side events

Compound: Gly-Ile-Phe-Ser-Lys-Leu-Ala-Gly-Lys-Lys-Ile-Lys-Asn-dLeu-Leu-Ile-dphosphoSer-Gly-Leu-Lys-Gly-NH2 (GIFSKLAGKKIKN[dL]LI[d(pS)]GLKG-NH2; N-terminus assumed; SMILES CC[C@H](C)[C@H](NC(=O)CN)C(=O)N[C@@H](Cc1ccccc1)C(=O)N[C@@H](CO)C(=O)N[C@@H](CCCCN)C(=O)N[C@@H](CC(C)C)C(=O)N[C@@H](C)C(=O)NCC(=O)N[C@@H](CCCCN)C(=O)N[C@@H](CCCCN)C(=O)N[C@H](C(=O)N[C@@H](CCCCN)C(=O)N[C@@H](CC(N)=O)C(=O)N[C@H](CC(C)C)C(=O)N[C@@H](CC(C)C)C(=O)N[C@H](C(=O)N[C@H](COP(=O)(O)O)C(=O)NCC(=O)N[C@@H](CC(C)C)C(=O)N[C@@H](CCCCN)C(=O)NCC(N)=O)[C@@H](C)CC)[C@@H](C)CC) [compound 2, carrying D-phosphoSer at position 17]
- transepithelial conductance (function of F508del-CFTR) [8]: significantly increase; also recorded: higher than that of genistein

Compound: temporin A [reference compound]
- CFTR conductance [6]: no effect on CFTR currents
